According to patent US8466203B2, “Method of stabilizing human eye tissue by reaction with nitrite and related agents such as nitro compounds” (priority 2006, dated 2013):
“And” between values parts separate entries of the source, which are not always exact repeats. Equal entries are not always repeated. Where two headings read alike, the source gives them in different places.

Columns and labels:
ARPE-19 cells = test system: ARPE-19 cells
From the text: A cytotoxicity study was undertaken to obtain an impression of the level of cellular tolerance to these compounds. For pilot experiments ARPE-19 cells were used. This is an immortal human retinal pigment epithelial cell line commonly used for experiments related to macular degeneration. In these pilot studies, the ARPE-19 cells serve as a surrogate for cytotoxicity experiments. Primary cultures of bovine corneal endothelial cells were also used in the cytotoxicity studies described. Bovine corneal cells have more direct relevance for evaluating potential cytotoxic effects during cross-linking of living eye tissue.
ARPE-19 cells were grown to 80% confluence in 96 well tissue culture plates. The cells were then exposed to varying concentrations of NaNO2 and 2-nitroethanol in their culture medium and evaluated for cell death using trypan blue (TB) staining (0.4% for 5 min) after 24 hrs.

porcine cornea [1] = test: Thermal shrinkage temperature analysis of porcine corneal strips
From the text: (§1) Thermal shrinkage temperature or denaturation temperature (Ts) is a technique that has been used for decades in studying collagen cross-linking. As collagen fibers are progressively heated, a threshold temperature is reached at which point disruption of hydrogen bonding in the collagen molecule triple helix occurs, resulting in unwinding of the triple helices. The denaturation of tertiary protein structure results in a rapid shrinkage of the tissue of up to 80%. This phenomenon can be expressed in various ways including temperature of onset of tissue shrinkage, temperature at maximal tissue shrinkage, and temperature at 50% of maximal tissue shrinkage, for example. In addition, differential scanning calorimetry (DSC) is related to thermal shrinkage temperature analysis and is widely used to evaluate biomaterial cross-linking. Thermal shrinkage temperature is essentially a simplified version of DSC and can be used effectively to screen the cross-linking efficacy of compounds. For the purposes of this study, the onset of shrinkage is considered the Ts and the temperature at which 50% of maximal shrinkage has occurred is T50. Graphs depicting the relationship between degree of shrinkage and temperature indicate differences in degree of cross-linking between groups. Thus, stabilization of collagen fiber structures through non-enzymatic cross-linking increases Ts and T50.
(§2) This system can perform multiple Ts assays in succession, allowing rapid screening of a number of potential cross-linking agents and conditions. […] Inlet and outlet fittings allow for constant circulation of heated water which is modulated by a digitally controlled water bath equipped with a water pump. The entire box is placed on a digital photo scanner connected to a Windows based computer. Beginning at 50° C. the temperature is raised at a rate of 1° C./min and serial scans are taken at every degree increase in temperature up to 80° C. […] As the tissue shrinks, the images are captured by the scanner. The image files are later analyzed for 2-dimensional area using NIH Image J software and % shrinkage calculations are made using Microsoft Excel for graphing purposes. This method obviates the need for removal of tissue pieces from the water bath with manual micrometer measurements as described by the UVR group (Spoerl, E., et al., 2004).
Using this simple, reproducible assay enables the screening of a number of compounds for cross-linking efficacy. This is first performed using porcine eyes because of their low cost. Follow up studies can be performed using human eyes. Porcine eyes are obtained within 6 hrs of sacrifice (Hatfield Meat Packing, Inc., Hatfield Pa.). Eyes showing clear corneas and intact epithelia are chosen for study. […] Each strip is then cross-linked using a nitro agent. The incubation solution is 20% Dextran (T500) [to prevent tissue swelling] in 0.2 M NaH2PO4/Na2HPO4 (pH 7.4) with various concentrations of nitro agent (i.e. 1, 10, and 100 mM). […] The samples are then placed in 2 mL microcentrifuge tubes with 1 mL of incubation solution and reacted in a 34° C. water bath (simulating corneal temperature—Girardin, F., et al., “Relationship between corneal temperature and finger temperature,” Arch. Opthalmol. 1999; 117:166-169) for 24-96 hrs. Following incubation, the samples are evaluated for degree of cross-linking using the Ts assay as described above.

porcine sclera = test: Thermal shrinkage temperature analysis of porcine scleral strips; conditions: for T50 (temperature at 50% of maximal shrinkage) / T50 Δ (change in 50% shrinkage temperature compared to control) / Ti (temperature at 1% absolute shrinkage): pH 7.4, 37° C., 96 hrs
From the text: as §1, §2
Using this simple, reproducible assay enables the screening of a number of compounds for cross-linking efficacy. This is first performed using porcine eyes because of their low cost. Follow up studies can be performed using human eyes. Porcine eyes are obtained within 6 hrs of sacrifice (Hatfield Meat Packing, Inc., Hatfield Pa.). Eyes showing clear corneas and intact epithelia are chosen for study. […] Each strip is then cross-linked using a nitro agent. […] Opthalmol. 1999; 117:166-169) for 24-96 hrs. Following incubation, the samples are evaluated for degree of cross-linking using the Ts assay as described above.
From the data, Ts curves are generated for each compound and condition studied. Each data point is the average of 3 independent samples.

porcine cornea [2] = test: Yellowing of cross-linked porcine cornea; conditions: 100 mM concentration
Procedure: These images were taken from tissues cross-linked with nitrite and the β-nitro alcohols 2-nitroethanol, 2-nitro-1-propanol, and […], for 48 hrs. […] Fresh porcine corneal strips and corneoscleral complexes were obtained within 6 hrs of sacrifice and incubated at 37° C. in buffered solutions (pH 7.4) containing 20% Dextran (T500) and either 100 mM NaNO2 or 100 mM of one each of the β-nitro alcohols. After 48 hrs, the following images were obtained. […] FIGS. 13 (B and D)
As such, the effects on corneal light transmission induced by cross-linking with β-nitro alcohols was evaluated using a method adopted from Dillon et al 2004.

porcine cornea [3] = test: Light transmission of cross-linked corneo-scleral complexes; conditions: 10 mM, 96 hrs incubation
Procedure: Following a 96 hrs incubation period at 10 mM, the corneo-scleral complexes were mounted between 2 pieces of quartz, previously determined to have no ultraviolet absorption. […] The sample was then mounted in a vertical, adjustable stage apparatus specifically designed to accommodate a PC 1000 Fibre Optic Spectrometer (Ocean Optics, Inc.). A xenon lamp was used as a light source and was connected to the upper half of the stage. The lower half was connected to a high sensitivity CCD mounted on a card which is installed in a PC computer. The CCD array detector captures a full wavelength spectrum (i.e. 200-1000 nm).
The absorption spectrum for each sample was recorded and exported into Microcal Origin 6.1 for processing. […] The scattering component was subtracted from the observed absorption spectrum by first fitting the scattering (non-absorption) portion of the spectrum (e.g. 700-800 nm) to the formula A=aλ^b, where A is the absorbance, λ is the wavelength, b is the order of the relationship between absorbance and wavelength, and a is a constant. The background signal due to scattering for all other wavelengths is then estimated using the coefficients determined from the fit. […] After scatter correction, the transmission spectrum for each absorption spectrum was calculated according to the Beer-Lambert law (T=10^−A×100%), where T is the transmission and A is the absorbance at each wavelength. […]

## O=[N+]([O-])CCO [2-nitroethanol]
ARPE-19 cells; 1 mM, 24 hrs
  trypan blue (TB) uptake: no TB was taken up
ARPE-19 cells; 10 mM, 24 hrs
  trypan blue (TB) uptake: all of the cells took up TB
ARPE-19 cells; 24 hrs, trypan blue
  cytotoxic threshold: > 1 mM and 1 to 10 mM
ARPE-19 cells; ARPE-19
  highest tolerated level: 1 mM
  tolerable level: 0.0091%
Porcine cornea [1]; 1 mM serially applied over 6 days
  Ts onset shift: 1-2 °C
Porcine cornea [1]; 1 mM, 4 days without replacing the incubation solution
  shift in Ts (in words): did not produce a shift in Ts
Porcine cornea [1]; 10 mM
  Ts onset shift: 5 °C
Porcine cornea [1]; 100 mM
  Ts onset shift: 8 °C
Porcine sclera; 1 mM reagent
  T50 (temperature at 50% of maximal shrinkage): 65.7 °C
  T50 Δ (change in 50% shrinkage temperature compared to control): 0.4 °C
  Ti (temperature at 1% absolute shrinkage): 62.9 °C
Porcine sclera; 1 mM serially applied over 10 days
  Ts shift: 2-3 °C
Porcine sclera; 1 mM, 4 days (96 hrs) without replacing the incubation solution
  shift in Ts (in words): did not produce a shift in Ts
Porcine sclera; 1 mM, incubation solution exchanged daily, 6 days
  T50 shift: 1.3 °C
Porcine sclera; 1 mM, incubation solution exchanged daily, 10 days
  T50 shift: 3.2 °C
Porcine sclera; 1 mM, incubation solution exchanged daily, 14 days
  T50 shift: 5.4 °C and 5.6 °C
Porcine sclera; 10 mM reagent
  T50 (temperature at 50% of maximal shrinkage): 69.8 °C
  T50 Δ (change in 50% shrinkage temperature compared to control): 4.5 °C
  Ti (temperature at 1% absolute shrinkage): 67.2 °C
Porcine sclera; 100 mM
  maximal increase of Ts: 8 °C
Porcine sclera; 100 mM reagent
  T50 (temperature at 50% of maximal shrinkage): 73.7 °C
  Ti (temperature at 1% absolute shrinkage): 70.7 °C
Porcine sclera; 100 mM, 24 hrs of incubation
  T50 shift: 1.4 °C
Porcine sclera; 100 mM, 48 hrs of incubation
  T50 shift: 2.4 °C
Porcine sclera; 100 mM, 72 hrs of incubation
  T50 shift: 5.3 °C
Porcine sclera; equimolar urea (nitrous acid trapping agent)
  blocking of the cross-linking effect by equimolar urea: not blocked
Porcine cornea [2]
  yellowing effect: significant yellowing effect
Porcine cornea [3]
  decrease in light transmission, 400-500 nm blue light region: 3.6%
